# Data taken from patent US9458187B2, “Methods for treatment of inflammatory conditions using S-[4-(3-fleuro-3-methylbutyryloxy)but-2-ynyl]6α, 9α-difluoro-17α-(furan-2-yl) carbonyloxy-11β-hydroxy-16α-methyl-3-oxoandrosta-1,4-diene-17β-carbothioate” (Sun Pharma Advanced Research Company Limited, priority 2013, dated 2016).
# Legend:
# [1] = biological target: T1, Aldosterone receptor (Rattus norvegicus, UniProt P22199); assay: Steroidal receptor binding screen, aldosterone
# T1 construct: aldosterone (Wistar rat kidney); from tissue; host or cells: Wistar rat kidney
# T1 sequence (P22199 1-981): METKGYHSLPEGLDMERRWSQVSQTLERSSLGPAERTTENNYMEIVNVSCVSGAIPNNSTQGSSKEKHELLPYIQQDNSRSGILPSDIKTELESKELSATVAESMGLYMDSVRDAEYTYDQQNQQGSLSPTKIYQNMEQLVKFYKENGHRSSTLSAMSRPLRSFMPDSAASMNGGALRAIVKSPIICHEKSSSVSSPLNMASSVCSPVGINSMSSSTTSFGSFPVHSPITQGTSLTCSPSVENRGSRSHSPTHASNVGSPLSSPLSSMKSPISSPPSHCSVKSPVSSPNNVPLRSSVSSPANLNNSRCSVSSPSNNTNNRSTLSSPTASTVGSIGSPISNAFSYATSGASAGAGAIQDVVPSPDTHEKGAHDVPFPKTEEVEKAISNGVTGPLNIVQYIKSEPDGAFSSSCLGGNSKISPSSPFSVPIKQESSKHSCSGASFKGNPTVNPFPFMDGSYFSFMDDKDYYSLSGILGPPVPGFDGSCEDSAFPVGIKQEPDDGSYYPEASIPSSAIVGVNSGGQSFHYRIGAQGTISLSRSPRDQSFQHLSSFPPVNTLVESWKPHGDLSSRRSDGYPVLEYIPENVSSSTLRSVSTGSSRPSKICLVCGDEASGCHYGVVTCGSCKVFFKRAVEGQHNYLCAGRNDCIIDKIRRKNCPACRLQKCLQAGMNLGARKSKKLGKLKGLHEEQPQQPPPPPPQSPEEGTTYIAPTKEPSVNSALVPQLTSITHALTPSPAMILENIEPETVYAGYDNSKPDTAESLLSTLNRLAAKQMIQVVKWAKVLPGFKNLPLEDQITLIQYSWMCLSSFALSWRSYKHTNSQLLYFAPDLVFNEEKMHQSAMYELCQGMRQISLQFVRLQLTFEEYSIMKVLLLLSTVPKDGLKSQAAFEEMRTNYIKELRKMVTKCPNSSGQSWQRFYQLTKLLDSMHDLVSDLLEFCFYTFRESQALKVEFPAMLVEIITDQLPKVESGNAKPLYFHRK
# Text: For determination of binding to other related steroidal receptors by compound of the present invention cloned receptors from cells indicated in the parentheses were used: estrogen Erα/Erβ and progesterone (human recombinant insect Sf9), testosterone (human LnCAP) and aldosterone (Wistar rat kidney).
# [2] = test system: intraocular pressure (IOP); assay: Effect on intraocular pressure (IOP); format: in vivo, rabbits; conditions: 40 μl ophthalmic, 10 instillations daily for 10 days; FIG. 4
# Experimental: IOP measurement was performed 1 hr after instillation of the last dose (results are represented in FIG. 4—Effect of ophthalmic steroids on-IOP in rabbits).
# [3] = Oral bioavailability and systemic plasma half-life; conditions: in vivo
compound,measurement,setting,value
"C[C@@H]1CC2C3C[C@H](F)C4=CC(=O)C=C[C@]4(C)[C@@]3(F)[C@@H](O)C[C@]2(C)[C@@]1(OC(=O)c1ccco1)C(=O)SCC#CCOC(=O)CC(C)(C)F (stereo partly drawn) [Formula I, S-[4-(3-Fluoro-3-methylbutyryloxy)but-2-ynyl]6α,9α-difluoro-17α-(furan-2-yl)carbonyloxy-11β-hydroxy-16α-methyl-3-oxoandrosta-1,4-diene-17β-carbothioate]",IC50,[1],328 nM
same,Ki,[1],256 nM
same,intraocular pressure (IOP),[2],insignificant (comparable to placebo)
same,systemic plasma half-life,[3],short systemic plasma half-life
same,oral bioavailability,[3]; po,low oral bioavailability
